Results: patent publication US20060099712A1, “Correlation of anti-cancer activity of dyes with redox potentials” (Eastman Kodak Company, priority 2004, published 2006)
Read-outs that look alike come from different tables or passages of the source. Values belong to the molecule of their own block, whether it stands above or below them.

What was measured:
[1] = Octanol/water partition (log P); format: physicochemical; conditions: shaking with water and octanol
Excerpt: Octanol/water partition coefficients (log P) are usually used as a model of drug transport between water and the biophase, as disclosed in A. Leo, C. Hansch, Substituent Constants—for Correlation Analysis in Chemistry. and' Biology, Wiley, New York, 1979 and A. Leo, C. Hansch, D. Elkins, Chem. Rev., 6, 525 (1971), both incorporated herein by reference. Often partition coefficients can be measured simply by shaking the compound with a mixture of water and octanol and determining the concentration of the solute in either solvent. P is equal to the concentration of the solute in octanol divided by its concentration in water. In general, it is possible to measure log P values ranging from −4.0 to 6.0. The situation is also more complicated when the species is charged because of the effects of ion pairing.

[2] = tested on: CV-1 Normal Monkey Kidney Epithelial; assay: Clonogenic dye screening assay, CV-1 cells (IC50); format: cell-based, African green monkey; conditions: Primates
How it was run: (§1)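 Cells seeded 16-30 h ahead (2000 CX-1 or 1000 CV-1 per well), exposed to serially diluted dyes for 3 h at 37 °C, rinsed three times, then grown into colonies. Eight-point curves spanned 0.32-0.0015 μg/mL (CX-1) and 3.2-0.025 μg/mL (CV-1). IC50 is the concentration killing 50% of cells.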

[3] = tested on: CX-1 Human Colon Carcinoma; assay: Clonogenic dye screening assay, CX-1 cells (IC50); format: cell-based; conditions: for IC50: Homo sapiens; for Selectivity: Table 1, cell line not given, values equal CV/CX of Table II; for CV/CX (selectivity, kill ratio): ratio of IC50 in normal CV-1 line to IC50 in carcinoma CX-1 line
How it was run: as §1

[4] = Dye solubility (water, 5% dextrose/water); format: physicochemical; conditions: for solubility: among compounds with enhanced activity
Excerpt: Dye solubility is also a factor, since compounds having low water solubility are difficult or impossible to include in in vivo testing.
S13 is one of the simplest cyanine dye structures possible (in this nomenclature the S refers to the sulfur, the 1 indicates one carbon on the nitrogen and 3 indicates a 3 methine chain). […] A synthetic challenge will be to enhance the activity/selectivity of this dye and retain its good water solubility. [drawing 23]

[5] = Table XXII; chain substituent hydrophobicity parameter; cited from earlier work
[6] = Table XXII; chain substituent steric parameter; cited from earlier work
[7] = Table XXII; chain substituent steric parameter; cited from earlier work; remark: listed apart in the source
[8] = Table XXII; chain substituent electronic parameter; cited from earlier work
[9] = Clonogenic dye screening assay, CX-1 cells (IC50); format: cell-based, human; conditions: Homo sapiens, CX-1, Table XII column 5; unit from method; read-out: CV (Table XII)
How it was run: as §1

In vivo tests (toxicity) = assay: In vivo tests (toxicity)
Excerpt: Benzothiazole is by far the next best.

[10] = CV-1, 3 hrs treatment, colonies after 7-10 days, unit from method, read-out: CV (IC50 in the CV-1 cell line)
[11] = CX-1, 3 hrs treatment, colonies after 7-10 days, unit from method, read-out: CX (IC50 in the CX-1 cell line)

Molecule: CCN1C(=CC=Cc2sc3ccccc3[n+]2CC)Sc2ccccc21.[I-] [3,3′-diethylthiacarbocyanine iodide]
octanol/water partition [1]: partition completely into the octanol phase

Molecule: CCN1/C(=C/C=C/c2sc3ccccc3[n+]2CC)Oc2ccccc21 [Dye D-104]
IC50 [2, 10]: 1 µg/mL
IC50 ([2]; CV-1, Table XVI, unsymmetrical dyes, CV-1 cells, read-out: CV): 1 µg/mL
IC50 [9]: 0.005 µg/mL
IC50 [3, 11]: 0.005 µg/mL
IC50 ([3]; CX-1, Table XVI, unsymmetrical dyes, CX-1 cells, read-out: CX): 0.005 µg/mL
Selectivity [3]: 200
CV/CX ([3]; Table XVI, selectivity ratio of IC50 values): 200.0
CV/CX (selectivity, kill ratio) [3]: 200

Molecule: CCN1/C(=C/C=C/c2sc3cc4c(cc3[n+]2CC)OCO4)Oc2ccccc21 [Dye D-163]
IC50 [2, 10]: 0.3 µg/mL
IC50 [9]: < 0.005 µg/mL
IC50 [3, 11]: 0.3 µg/mL
CV/CX (selectivity, kill ratio) [3]: >60.0

Molecule: Indole
CV/CX (selectivity, kill ratio) [3]: highest selectivity
toxicity in vivo (In vivo tests (toxicity)): high toxicity

Further lines, with some results ahead:

IC50 [3, 11]: 0.005 µg/mL
IC50 ([3]; CX-1, Table XX, thiacarbocyanine nitrogen substituents, CX-1 cells, read-out: CX): < 0.005 µg/mL
solubility [4]: most desirably soluble
Molecule: CN1/C(=C/C=C/c2sc3ccccc3[n+]2C)Sc2ccccc21 [Dye D-100]
IC50 [2, 10]: 0.5 µg/mL
IC50 ([2]; CV-1, Table XX, thiacarbocyanine nitrogen substituents, CV-1 cells, read-out: CV): 0.5 µg/mL
Selectivity [3]: 100
CV/CX ([3]; Table XX, ratio given a value of 1 where dye inactive): 100.0
CV/CX (selectivity, kill ratio) [3]: 100
π [5]: 0.00
MR [6]: 0.103
B1 [7]: 1.00
L [7]: 2.06
F [8]: 0.00
R [8]: 0.00
σm [8]: 0.00
σp [8]: 0.00

IC50 [9]: < 0.005 µg/mL
IC50 [3, 11]: < 0.005 µg/mL
Molecule: CCN1/C(=C/C=C/c2oc3ccc(-c4ccccc4)cc3[n+]2CC)Sc2ccccc21 [Dye D-131]
IC50 [2, 10]: 0.3 µg/mL

CX (IC50 in the CX-1 cell line) ([3]; 3 hrs treatment, colonies after 7-10 days, unit from method b117-118): <0.005 µg/mL
solubility [4]: most desirably soluble
Molecule: CN1/C(=C/C=C/c2sc3cc4ccccc4cc3[n+]2C)Sc2cc3ccccc3cc21.Cc1ccc(S(=O)(=O)[O-])cc1 [Dye D-140]
CV/CX (selectivity, kill ratio) [3]: 60

solubility in 5% dextrose/water solutions ([4]; 5% dextrose/water): good solubility
Molecule: CN1/C(=C/C=C/c2sc3ccccc3[n+]2C)Sc2ccccc21 [Dye S13]
